Measurements reported in patent US9745311B2, “Substituted pyrrolo[2,3-b]pyrazines as FGFR inhibitors” (Incyte Corporation, priority 2012, dated 2017).
Read-outs that look alike come from different tables or passages of the source.

Columns and labels:
FGFR1 = FGFR1 (Homo sapiens (Human), UniProt P11362); assay: FGFR Enzymatic Assay (FGFR1); assay type: biochemical; details: enzyme 0.02 nM, ATP 210 μM
Protocol: (§1) The inhibitor potency of compounds was measured in an enzyme assay that measures peptide phosphorylation using FRET measurements to detect product formation. Inhibitors were serially diluted in DMSO and a volume of 0.5 μL was transferred to the wells of a 384-well plate. For FGFR3, a 10 μL volume of FGFR3 enzyme (Millipore) diluted in assay buffer (50 mM HEPES, 10 mM MgCl2, 1 mM EGTA, 0.01% Tween-20, 5 mM DTT, pH 7.5) was added to the plate and pre-incubated for 5-10 minutes. Appropriate controls (enzyme blank and enzyme with no inhibitor) were included on the plate. […] The plate was incubated at 25° C. for 1 hr. […] The plate was allowed to equilibrate for ˜1 hr before scanning the wells on a PheraStar plate reader.
(§2) GraphPad prism3 was used to analyze the data. The IC50 values were derived by fitting the data to the equation for a sigmoidal dose-response with a variable slope. Y=Bottom+(Top−Bottom)/(1+10^((Log IC50−X)*HillSlope)) where X is the logarithm of concentration and Y is the response.

FGFR2 = FGFR2 (Homo sapiens (Human), UniProt P21802); assay: FGFR Enzymatic Assay (FGFR2); assay type: biochemical;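 further: FRET read-out of peptide phosphorylation by the purified kinase, with enzyme-free blank and uninhibited enzyme as controls, potency from a variable-slope sigmoidal dose-response fit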
Protocol: as §1, §2

FGFR3 enzyme (Millipore) = FGFR3 enzyme (Millipore) (Homo sapiens (Human), UniProt P22607); assay: biochemical
Protocol: as §1, §2

[1] = enzyme 0.01 nM, ATP 100 μM, read-out: FGFR2 IC50

Sequence of FGFR2 (P21802 22-821): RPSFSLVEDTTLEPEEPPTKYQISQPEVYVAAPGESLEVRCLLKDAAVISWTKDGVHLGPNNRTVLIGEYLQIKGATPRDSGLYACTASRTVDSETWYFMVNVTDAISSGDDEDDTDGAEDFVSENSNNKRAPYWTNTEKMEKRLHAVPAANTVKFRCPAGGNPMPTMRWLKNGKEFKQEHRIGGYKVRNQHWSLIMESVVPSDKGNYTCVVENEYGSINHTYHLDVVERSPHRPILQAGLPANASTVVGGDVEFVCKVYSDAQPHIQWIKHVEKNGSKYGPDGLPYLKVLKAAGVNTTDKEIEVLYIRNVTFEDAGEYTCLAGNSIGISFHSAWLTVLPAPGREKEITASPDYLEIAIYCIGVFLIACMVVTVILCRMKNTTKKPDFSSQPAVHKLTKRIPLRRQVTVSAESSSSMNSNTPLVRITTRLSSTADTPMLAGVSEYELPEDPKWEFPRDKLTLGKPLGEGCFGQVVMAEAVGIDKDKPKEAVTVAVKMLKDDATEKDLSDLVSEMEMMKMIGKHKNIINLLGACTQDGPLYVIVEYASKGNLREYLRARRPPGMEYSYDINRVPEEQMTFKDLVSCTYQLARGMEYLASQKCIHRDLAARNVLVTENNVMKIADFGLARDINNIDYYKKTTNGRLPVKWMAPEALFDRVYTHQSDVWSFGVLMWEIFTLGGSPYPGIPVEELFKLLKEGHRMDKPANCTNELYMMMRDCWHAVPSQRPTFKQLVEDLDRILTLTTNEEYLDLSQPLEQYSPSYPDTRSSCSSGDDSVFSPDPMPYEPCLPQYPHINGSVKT
Sequence of FGFR1 (P11362 22-822): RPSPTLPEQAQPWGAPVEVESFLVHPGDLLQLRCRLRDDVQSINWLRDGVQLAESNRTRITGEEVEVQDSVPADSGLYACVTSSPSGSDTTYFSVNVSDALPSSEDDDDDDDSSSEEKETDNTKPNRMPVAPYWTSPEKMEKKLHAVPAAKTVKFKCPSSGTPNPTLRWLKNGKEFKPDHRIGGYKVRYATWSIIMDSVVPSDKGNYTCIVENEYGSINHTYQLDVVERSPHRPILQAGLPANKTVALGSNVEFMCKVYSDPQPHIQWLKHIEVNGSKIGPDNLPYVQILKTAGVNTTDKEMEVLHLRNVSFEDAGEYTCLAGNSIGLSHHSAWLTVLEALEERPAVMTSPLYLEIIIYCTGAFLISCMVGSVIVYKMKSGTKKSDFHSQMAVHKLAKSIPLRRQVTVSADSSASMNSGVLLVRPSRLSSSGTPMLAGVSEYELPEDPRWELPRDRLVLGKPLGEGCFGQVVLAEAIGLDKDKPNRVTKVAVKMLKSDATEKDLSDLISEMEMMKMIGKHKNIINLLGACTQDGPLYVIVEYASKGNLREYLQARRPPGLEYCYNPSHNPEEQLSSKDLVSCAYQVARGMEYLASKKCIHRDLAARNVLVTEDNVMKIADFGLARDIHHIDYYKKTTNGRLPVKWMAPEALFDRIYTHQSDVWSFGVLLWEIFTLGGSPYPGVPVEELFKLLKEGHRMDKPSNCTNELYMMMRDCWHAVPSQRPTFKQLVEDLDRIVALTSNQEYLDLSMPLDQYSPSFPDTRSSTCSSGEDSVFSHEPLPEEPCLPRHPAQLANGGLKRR
Sequence of FGFR3 enzyme (Millipore) (P22607 23-806): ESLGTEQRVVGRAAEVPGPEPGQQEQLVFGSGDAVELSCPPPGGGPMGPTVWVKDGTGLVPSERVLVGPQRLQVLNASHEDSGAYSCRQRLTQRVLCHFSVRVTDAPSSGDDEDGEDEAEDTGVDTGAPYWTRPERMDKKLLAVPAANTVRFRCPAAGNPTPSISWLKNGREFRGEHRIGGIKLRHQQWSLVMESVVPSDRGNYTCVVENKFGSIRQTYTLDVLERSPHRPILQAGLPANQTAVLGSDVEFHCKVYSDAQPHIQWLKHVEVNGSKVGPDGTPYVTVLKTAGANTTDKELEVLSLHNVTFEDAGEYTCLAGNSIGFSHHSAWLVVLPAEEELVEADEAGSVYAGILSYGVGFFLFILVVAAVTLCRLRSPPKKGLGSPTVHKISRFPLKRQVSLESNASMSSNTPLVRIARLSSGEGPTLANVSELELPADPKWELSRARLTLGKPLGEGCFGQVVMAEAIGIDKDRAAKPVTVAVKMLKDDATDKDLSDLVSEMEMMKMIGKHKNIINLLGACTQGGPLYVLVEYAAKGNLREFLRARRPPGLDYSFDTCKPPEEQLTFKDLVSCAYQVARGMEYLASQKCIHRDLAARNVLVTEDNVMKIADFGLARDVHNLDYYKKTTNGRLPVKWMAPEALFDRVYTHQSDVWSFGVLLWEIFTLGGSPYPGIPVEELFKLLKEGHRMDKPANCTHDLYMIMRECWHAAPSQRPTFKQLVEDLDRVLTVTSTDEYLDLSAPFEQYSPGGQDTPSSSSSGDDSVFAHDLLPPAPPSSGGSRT

SMILES	IC50 (FGFR1) [nM]	IC50 (FGFR2; [1]) [nM]	IC50 (FGFR3 enzyme (Millipore)) [nM]	IC50 (FGFR2) [nM]
COc1cc(CCc2cnc3[nH]c(-c4ccnc(N5CCN(C)CC5)c4)cc3n2)cc(OC)c1 [Example 55, 2-(3,5-Dimethoxyphenethyl)-6-(2-(4-methylpiperazin-1-yl)pyridin-4-yl)-5H-pyrrolo[2,3-b]pyrazine]	< 100	< 100	100 to 500	–
COc1cc(CCc2cnc3[nH]c(C4=CCN(C)CC4)cc3n2)cc(OC)c1 [Example 23, 2-[2-(3,5-dimethoxyphenyl)ethyl]-6-(1-methyl-1,2,3,6-tetrahydropyridin-4-yl)-5H-pyrrolo[2,3-b]pyrazine]	< 100	< 100	100 to 500	–
CNC(=O)c1ccc(-c2cc3nc(CCc4cc(OC)cc(OC)c4)cnc3[nH]2)cn1 [Example 17, 5-{2-[2-(3,5-dimethoxyphenyl)ethyl]-5H-pyrrolo[2,3-b]pyrazin-6-yl}-N-methylpyridine-2-carboxamide]	< 100	< 100	100 to 500	–
COc1cc(CCc2cnc3[nH]c(-c4ccc(N5CCCC5=O)nc4)cc3n2)cc(OC)c1 [Example 68, 1-(5-(2-(3,5-Dimethoxyphenethyl)-5H-pyrrolo[2,3-b]pyrazin-6-yl)pyridin-2-yl)pyrrolidin-2-one]	< 100	< 100	100 to 500	–
COc1cc(CCc2cnc3[nH]c(-c4ccc5[nH]ncc5c4)cc3n2)cc(OC)c1 [Example 70, 2-(3,5-Dimethoxyphenethyl)-6-(1H-indazol-5-yl)-5H-pyrrolo[2,3-b]pyrazine]	< 100	< 100	100 to 500	–
COc1cc(CCc2cnc3[nH]c(-c4cncc(N5CCOCC5)c4)cc3n2)cc(OC)c1 [Example 69, 4-(5-(2-(3,5-Dimethoxyphenethyl)-5H-pyrrolo[2,3-b]pyrazin-6-yl)pyridin-3-yl)morpholine]	< 100	< 100	100 to 500	–
COc1cc(CCc2cnc3[nH]c(-c4cnc(N)nc4)cc3n2)cc(OC)c1 [Example 58, 5-(2-(3,5-Dimethoxyphenethyl)-5H-pyrrolo[2,3-b]pyrazin-6-yl)pyrimidin-2-amine]	< 100	< 100	100 to 500	–
COc1cc(CCc2cnc3[nH]c(-c4ccc(CC#N)cc4)cc3n2)cc(OC)c1 [Example 14, (4-{2-[2-(3,5-dimethoxyphenyl)ethyl]-5H-pyrrolo[2,3-b]pyrazin-6-yl}phenyl)acetonitrile]	< 100	< 100	100 to 500	–
COc1cc(CCc2cnc3[nH]c(-c4ccc(C(=O)N(C)C)cc4)cc3n2)cc(OC)c1 [Example 7, 4-{2-[2-(3,5-dimethoxyphenyl)ethyl]-5H-pyrrolo[2,3-b]pyrazin-6-yl}-N,N-dimethylbenzamide]	< 100	< 100	100 to 500	–
COc1cc(CCc2cnc3[nH]c(-c4ccc(NC(C)=O)cc4)cc3n2)cc(OC)c1 [Example 6, N-(4-{2-[2-(3,5-dimethoxyphenyl)ethyl]-5H-pyrrolo[2,3-b]pyrazin-6-yl}phenyl)acetamide]	< 100	< 100	100 to 500	–
COc1cc(CCc2cnc3[nH]c(-c4c(F)cccc4F)cc3n2)cc(OC)c1 [Example 4, 6-(2,6-difluorophenyl)-2-(3,5-dimethoxyphenethyl)-5H-pyrrolo[2,3-b]pyrazine]	< 100	–	500 to 2700	100 to 500
COc1cc(CCc2cnc3[nH]c(-c4cnn(C5CCN(C)CC5)c4)cc3n2)cc(OC)c1 [Example 37, 2-[2-(3,5-dimethoxyphenyl)ethyl]-6-[1-(1-methylpiperidin-4-yl)-1H-pyrazol-4-yl]-5H-pyrrolo[2,3-b]pyrazine]	< 100	< 100	100 to 500	–
COc1cc(CCc2cnc3[nH]c(-c4cnn(C)c4)cc3n2)cc(OC)c1 [Example 30, 2-[2-(3,5-dimethoxyphenyl)ethyl]-6-(1-methyl-1H-pyrazol-4-yl)-5H-pyrrolo[2,3-b]pyrazine]	< 100	< 100	100 to 500	–
COc1cc(CCc2cnc3[nH]c(-c4cnn(CCN5CCN(C)CC5)c4)cc3n2)cc(OC)c1 [Example 42, 2-[2-(3,5-dimethoxyphenyl)ethyl]-6-{1-[2-(4-methylpiperazin-1-yl)ethyl]-1H-pyrazol-4-yl}-5H-pyrrolo[2,3-b]pyrazine]	< 100	< 100	100 to 500	–
COc1cc(CCc2cnc3[nH]c(-c4ccc(C(F)(F)F)cc4)cc3n2)cc(OC)c1 [Example 8, 2-[2-(3,5-dimethoxyphenyl)ethyl]-6-[4-(trifluoromethyl)phenyl]-5H-pyrrolo[2,3-b]pyrazine]	< 100	–	100 to 500	100 to 500
COc1cc(CCc2cnc3[nH]c(-c4ccnc(C(=O)N(C)C)c4)cc3n2)cc(OC)c1 [Example 74, 4-(2-(3,5-Dimethoxyphenethyl)-5H-pyrrolo[2,3-b]pyrazin-6-yl)-N,N-dimethylpicolinamide]	< 100	< 100	100 to 500	–
COc1cc(CCc2cnc3[nH]c(-c4cnn(CC(=O)N(C)C)c4)cc3n2)cc(OC)c1 [Example 43, 2-(4-{2-[2-(3,5-dimethoxyphenyl)ethyl]-5H-pyrrolo[2,3-b]pyrazin-6-yl}-1H-pyrazol-1-yl)-N,N-dimethylacetamide]	< 100	< 100	100 to 500	–
COc1cc(CCc2cnc3[nH]c(-c4ccnc(C(=O)N5CC(O)C5)c4)cc3n2)cc(OC)c1 [Example 75, (4-(2-(3,5-Dimethoxyphenethyl)-5H-pyrrolo[2,3-b]pyrazin-6-yl)pyridin-2-yl)(3-hydroxyazetidin-1-yl)methanone]	< 100	< 100	100 to 500	–
COc1cc(CCc2cnc3[nH]c(-c4ccc(N5CCN(C)CC5)nc4)cc3n2)cc(OC)c1 [Example 16, 2-[2-(3,5-dimethoxyphenyl)ethyl]-6-[6-(4-methylpiperazin-1-yl)pyridin-3-yl]-5H-pyrrolo[2,3-b]pyrazine]	< 100	< 100	100 to 500	–
COc1cc(CCc2cnc3[nH]c(-c4ccccc4C#N)cc3n2)cc(OC)c1 [Example 10, 2-{2-[2-(3,5-dimethoxyphenyl)ethyl]-5H-pyrrolo[2,3-b]pyrazin-6-yl}benzonitrile]	< 100	< 100	500 to 2700	–
COc1cc(CCc2cnc3[nH]c(-c4ccc(C(=O)N(C)C)nc4)cc3n2)cc(OC)c1 [Example 59, 5-(2-(3,5-Dimethoxyphenethyl)-5H-pyrrolo[2,3-b]pyrazin-6-yl)-N,N-dimethylpicolinamide]	< 100	< 100	100 to 500	–
COc1cc(CCc2cnc3[nH]c(-c4ccc(F)c(C(=O)N(C)C)c4)cc3n2)cc(OC)c1 [Example 54, 5-(2-(3,5-Dimethoxyphenethyl)-5H-pyrrolo[2,3-b]pyrazin-6-yl)-2-fluoro-N,N-dimethylbenzamide]	< 100	< 100	100 to 500	–
COc1cc(CCc2cnc3[nH]c(-c4ccc(NC(C)=O)nc4)cc3n2)cc(OC)c1 [Example 67, N-(5-(2-(3,5-Dimethoxyphenethyl)-5H-pyrrolo[2,3-b]pyrazin-6-yl)pyridin-2-yl)acetamide]	< 100	< 100	100 to 500	–
